Experimental data from patent publication US6436445B1, “Antimicrobial and antiviral compositions containing an oxidizing species” (Ecolab Inc., priority 1999, dated 2002).
Read-outs that look alike come from different tables or passages of the source. Marks after values point to notes of the source that are not given here.

Key:
[1] = test system: S. aureus; assay: Log reduction of bacteria by liquid compositions, 30 second contact (S. aureus); type: cell-based; conditions: for Log Reduction S. aureus: vs. untreated control
Description: (§1) A variety of nitrogen sources are utilized. Results recorded include the color of the solution and the microbial log reduction of gram-positive and gram-negative bacteria (E. coli and S. aureus, respectively). As shown earlier there is a direct correlation between color of the solution and microbial efficacy. […] Looking at Table 6, there is an obvious direct correlation between color and antimicrobial activity. Table 7 compares formulas of the present invention with prior art examples for the reduction of gram-positive and gram-negative bacteria. […] Results recorded include the pH of the solution, the color of the solution and the log reduction in microbe.

[2] = test system: E. coli ATCC 11229; assay: Log reduction of bacteria by liquid compositions, 30 second contact (E. coli); type: cell-based; conditions: for Log Reduction E. coli / Log Reduction: 30 second contact time; for Log Reduction E. coli: vs. untreated control; for Log Reduction: E. coli
Description: as §1

[3] = test system: Feline parvovirus; conditions: cited from earlier work
[4] = test system: Z. bailii
[5] = test system: Penicillium expansum (ATCC 7861); assay: Mold spore suspension test, exposure, neutralization, plating on Sabouraud Dextrose agar; type: cell-based; conditions: P. expansum, 15 minute contact time
[6] = test system: Total bacterial flora on prerigor beef tissue surfaces; assay: Microbial reduction on prerigor beef tissue surfaces, 30 second treatment; type: cell-based
[7] = published results against Feline parvovirus
[8] = Actives Conc. 300 ppm, 30 second exposure

Compound: CCCCCCCC[N+](C)(C)[O-] [C8 amine oxide, Octyl dimethyl aznine oxide]
- Log Reduction S. aureus ([1]; 30 second contact time): 0 log
- Log Reduction E. coli [2]: 0 log

Compound: CCO [Ethanol]
- Minimum Concentration (for 10-minute inactivation) [3, 7]: 500,000 ppm

Compound: OO [Formula H2O2, hydrogen peroxide]
- Log Reduction S. aureus ([1]; 30 second contact time): 0 log
- Log Reduction (CFU/ml) S. aureus [1, 8]: 0.4 log CFU/ml
- Log Reduction ([1]; S. aureus, N-source:H2O2:KI 0:300:0 ppm, pH 5, 30 second contact time): 0.4 log
- Log Reduction ([4]; N-source:H2O2:KI 0:532:0 ppm, pH 3, 30 second contact time): 0.1 log
- Log Reduction ([4]; N-source:H2O2:KI 0:532:0 ppm, pH 5, 30 second contact time): 0.1 log
- Log Reduction ([4]; N-source:H2O2:KI 0:532:0 ppm, pH 7, 30 second contact time): 0.1 log
- Log Reduction ([5]; N-source:H2O2:KI 0:532:0 ppm, pH 5): 0.0* log
- Log Reduction E. coli [2]: 0.2 log
- Log Reduction (CFU/ml) E. coli [2, 8]: 0.2 log CFU/ml
- Log Reduction ([2]; N-source:H2O2:KI 0:300:0 ppm, pH 5): 0.2 log

Compound: O=CCCCC=O [Glutaraldehyde]
- Minimum Concentration (for 10-minute inactivation) ([3]; published, (2-log)): 10,000

Compound: CC(C)O [IPA]
- Minimum Concentration (for 10-minute inactivation) [3, 7]: 500,000 ppm

Compound: [I-].[K+] [KI, potassium iodide]
- Log Reduction S. aureus ([1]; 30 second contact time): 0 log
- Log Reduction ([5]; N-source:H2O2:KI 0:0:500 ppm, pH 5): 0.0* log
- Log Reduction E. coli [2]: 0 log

Compound: [Na+].[O-]Cl [NaOCl]
- Minimum Concentration (for 10-minute inactivation) [3, 7]: 2,000 ppm

Compound: CCCCCCCCCCCCCCCC[n+]1ccccc1 [cetyl pyridinium chloride]
- Log Reduction [6]: 0.5 log

Compound: C[N+](C)(C)CCO.[Cl-] [choline chloride]
- Log Reduction S. aureus ([1]; 30 second contact time): 0 log
- Log Reduction ([4]; N-source:H2O2:KI 300:0:0 ppm, pH 7, 30 second contact time): 0.0 log
- Log Reduction E. coli [2]: 0 log
- Log Reduction ([2]; N-source:H2O2:KI 300:0:0 ppm, pH 7): 0.0 log

Compound: CCCCCCCCCC[N+](C)(C)CCCCCCCCCC.[Cl-] [didecyl dimethyl ammonium chloride]
- Log Reduction ([4]; N-source:H2O2:KI 20:0:0 ppm, pH 3, 30 second contact time): 0.1 log
- Log Reduction ([5]; N-source:H2O2:KI 100:0:0 ppm, pH 7): 1.0* log

Compound: CC(O)C(=O)O (centres unmarked) [lactic acid]
- Log Reduction ([6]; Active Antimicrobial 5000 ppm, treated 30 seconds, drained 10 minutes, relative to untreated starting meat carcass): 0.8 log

Compound: Oc1ccccc1-c1ccccc1 [o-phenylphenol G, o-phenylphenol]
- Minimum Concentration (for 10-minute inactivation) [3, 7]: 100,000 ppm

Compound: cocoa dimethyl betaine
- Log Reduction S. aureus ([1]; 30 second contact time): 0 log
- Log Reduction E. coli [2]: 0 log

Compound: cocodimethyl betaine
- Log Reduction S. aureus ([1]; 30 second contact time): 0 log
- Log Reduction E. coli [2]: 0 log
